In ChEMBL document CHEMBL1201862, “PubChem BioAssay data set” (2004):
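A five-concentration, 48-hour dose response in 96-well plates underlies each endpoint, interpolated linearly between surrounding concentrations. Abbreviation: GI50, concentration required for 50% inhibition of growth.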 Calls of active or inactive are those of the source. No stated cut-off is given here; in the data, active = GI50 up to about 1.1 µM and inactive = higher.

Legend:
Experiment in all cases: NCI anticancer screen, dose series, 48 h
HCT-15 = tested on: HCT-15
HCC 2998 = tested on: HCC 2998
CCRF-CEM = tested on: CCRF-CEM
MOLT-4 = tested on: MOLT-4
EKVX = tested on: EKVX
HOP-62 = tested on: HOP-62
HL-60 = tested on: HL-60
A498 = tested on: A498
SF-295 = tested on: SF-295
KM12 = tested on: KM12
SK-OV-3 = tested on: SK-OV-3
OVCAR-5 = tested on: OVCAR-5
SN12C = tested on: SN12C
UO-31 = tested on: UO-31
SF-539 = tested on: SF-539
OVCAR-4 = tested on: OVCAR-4
SR = tested on: SR
PC-3 = tested on: PC-3
SNB-75 = tested on: SNB-75
A549 = tested on: A549
MCF7 = tested on: MCF7
MDA-N = tested on: MDA-N
Malme-3M = tested on: Malme-3M
MDA-MB-435 = tested on: MDA-MB-435
MDA-MB-231 = tested on: MDA-MB-231
NCI/ADR-RES = tested on: NCI/ADR-RES
786-0 = tested on: 786-0
SK-MEL-5 = tested on: SK-MEL-5
UACC-257 = tested on: UACC-257
OVCAR-3 = tested on: OVCAR-3
HOP-92 = tested on: HOP-92
CAKI-1 = tested on: CAKI-1
M14 = tested on: M14
OVCAR-8 = tested on: OVCAR-8
RXF 393 = tested on: RXF 393
K562 = tested on: K562
SK-MEL-2 = tested on: SK-MEL-2
IGROV-1 = tested on: IGROV-1
SW-620 = tested on: SW-620
ACHN = tested on: ACHN
HT-29 = tested on: HT-29
HCT-116 = tested on: HCT-116
U-251 = tested on: U-251
LOX IMVI = tested on: LOX IMVI
NCI-H23 = tested on: NCI-H23
BT-549 = tested on: BT-549
NCI-H226 = tested on: NCI-H226
NCI-H522 = tested on: NCI-H522
T47D = tested on: T47D
RPMI-8226 = tested on: RPMI-8226
NCI-H460 = tested on: NCI-H460
DU-145 = tested on: DU-145
SNB-19 = tested on: SNB-19
COLO 205 = tested on: COLO 205
TK-10 = tested on: TK-10
Hs-578T = tested on: Hs-578T
SK-MEL-28 = tested on: SK-MEL-28
UACC-62 = tested on: UACC-62
SF-268 = tested on: SF-268
M19-MEL = tested on: M19-MEL
KM-20L2 = tested on: KM-20L2
XF498 = tested on: XF498
DMS-273 = tested on: DMS-273
LXFL 529 = tested on: LXFL 529
DLD-1 = tested on: DLD-1
DMS-114 = tested on: DMS-114
SNB-78 = tested on: SNB-78

## CC(O)c1cc2c(s1)C(=O)c1scc(C(C)O)c1C2=O (stereo not given)
HCT-15
  GI50: 0.352 µM
HCC 2998
  GI50: 1.66 µM (inactive)
CCRF-CEM
  GI50: 1.18 µM (inactive)
MOLT-4
  GI50: 0.753 µM (active)
EKVX
  GI50: 0.991 µM (active)
HOP-62
  GI50: 0.973 µM (active)
HL-60
  GI50: 0.646 µM (active)
A498
  GI50: 2.2 µM (inactive)
SF-295
  GI50: 0.168 µM (active)
KM12
  GI50: 1.79 µM (inactive)
SK-OV-3
  GI50: 2.64 µM (inactive)
OVCAR-5
  GI50: 1.37 µM (inactive)
SN12C
  GI50: 0.53 µM (active)
UO-31
  GI50: 0.337 µM (active)
SF-539
  GI50: 0.23 µM (active)
OVCAR-4
  GI50: 0.745 µM (active)
SR
  GI50: 0.271 µM (active)
PC-3
  GI50: 0.388 µM (active)
SNB-75
  GI50: 0.29 µM (active)
A549
  GI50: 0.67 µM (active)
MCF7
  GI50: 0.413 µM (active)
MDA-N
  GI50: 0.186 µM (active)
Malme-3M
  GI50: 0.172 µM (active)
MDA-MB-435
  GI50: 0.175 µM (active)
MDA-MB-231
  GI50: 0.316 µM (active)
NCI/ADR-RES
  GI50: 0.283 µM (active)
786-0
  GI50: 2.07 µM (inactive)
SK-MEL-5
  GI50: 0.156 µM (active)
UACC-257
  GI50: 0.176 µM (active)
OVCAR-3
  GI50: 0.393 µM (active)
HOP-92
  GI50: 1.96 µM (inactive)
CAKI-1
  GI50: 1.01 µM (active)
M14
  GI50: 0.19 µM (active)
OVCAR-8
  GI50: 0.286 µM (active)
RXF 393
  GI50: 0.881 µM (active)
K562
  GI50: 0.597 µM (active)
SK-MEL-2
  GI50: 0.224 µM (active)
IGROV-1
  GI50: 1.68 µM (inactive)
SW-620
  GI50: 0.321 µM (active)
ACHN
  GI50: 0.853 µM (active)
HT-29
  GI50: 2.43 µM (inactive)
HCT-116
  GI50: 0.659 µM (active)
U-251
  GI50: 0.419 µM (active)
LOX IMVI
  GI50: 0.172 µM (active)
NCI-H23
  GI50: 0.191 µM (active)
BT-549
  GI50: 0.211 µM (active)
NCI-H226
  GI50: 2 µM (inactive)
NCI-H522
  GI50: 0.628 µM (active)
T47D
  GI50: 1.95 µM (inactive)
RPMI-8226
  GI50: 0.579 µM (active)
NCI-H460
  GI50: 0.757 µM (active)
DU-145
  GI50: 0.614 µM (active)
SNB-19
  GI50: 0.667 µM (active)
COLO 205
  GI50: 1.91 µM (inactive)
TK-10
  GI50: 1.69 µM (inactive)
Hs-578T
  GI50: 0.394 µM (active)
SK-MEL-28
  GI50: 0.279 µM (active)
UACC-62
  GI50: 0.245 µM (active)
SF-268
  GI50: 0.28 µM (active)

## N#CC(C(=O)C(=O)Nc1ccccc1)c1ccccc1 (stereo not given)
M19-MEL
  GI50: > 100 µM (inactive)
HCT-15
  GI50: > 100 µM
CCRF-CEM
  GI50: > 100 µM (inactive)
MOLT-4
  GI50: > 100 µM (inactive)
EKVX
  GI50: > 100 µM (inactive)
HL-60
  GI50: > 100 µM (inactive)
SF-295
  GI50: > 100 µM (inactive)
KM12
  GI50: > 100 µM (inactive)
SK-OV-3
  GI50: > 100 µM (inactive)
SN12C
  GI50: > 100 µM (inactive)
UO-31
  GI50: > 100 µM (inactive)
SF-539
  GI50: > 100 µM (inactive)
SR
  GI50: > 100 µM (inactive)
KM-20L2
  GI50: > 100 µM (inactive)
SNB-75
  GI50: > 100 µM (inactive)
A549
  GI50: > 100 µM (inactive)
Malme-3M
  GI50: > 100 µM (inactive)
XF498
  GI50: > 100 µM (inactive)
786-0
  GI50: > 100 µM (inactive)
UACC-257
  GI50: > 100 µM (inactive)
OVCAR-3
  GI50: > 100 µM (inactive)
HOP-92
  GI50: > 100 µM (inactive)
CAKI-1
  GI50: > 100 µM (inactive)
M14
  GI50: > 100 µM (inactive)
K562
  GI50: > 100 µM (inactive)
SK-MEL-2
  GI50: > 100 µM (inactive)
IGROV-1
  GI50: > 100 µM (inactive)
SW-620
  GI50: > 100 µM (inactive)
ACHN
  GI50: > 100 µM (inactive)
HT-29
  GI50: > 100 µM (inactive)
HCT-116
  GI50: > 100 µM (inactive)
U-251
  GI50: > 100 µM (inactive)
LOX IMVI
  GI50: > 100 µM (inactive)
NCI-H23
  GI50: > 100 µM (inactive)
DMS-273
  GI50: > 100 µM (inactive)
NCI-H226
  GI50: > 100 µM (inactive)
NCI-H522
  GI50: > 100 µM (inactive)
RPMI-8226
  GI50: > 100 µM (inactive)
LXFL 529
  GI50: > 100 µM (inactive)
SNB-19
  GI50: > 100 µM (inactive)
TK-10
  GI50: > 100 µM (inactive)
SK-MEL-28
  GI50: > 100 µM (inactive)
UACC-62
  GI50: > 100 µM (inactive)
DLD-1
  GI50: > 100 µM (inactive)
SF-268
  GI50: > 100 µM (inactive)

## O=C(O)CCSC(=O)Nc1ccc([N+](=O)[O-])cc1
HCT-15
  GI50: > 100 µM
HCC 2998
  GI50: > 100 µM (inactive)
CCRF-CEM
  GI50: > 100 µM (inactive)
MOLT-4
  GI50: > 100 µM (inactive)
EKVX
  GI50: > 100 µM (inactive)
HOP-62
  GI50: > 100 µM (inactive)
HL-60
  GI50: > 100 µM (inactive)
A498
  GI50: > 100 µM (inactive)
SF-295
  GI50: > 100 µM (inactive)
KM12
  GI50: > 100 µM (inactive)
SN12C
  GI50: > 100 µM (inactive)
UO-31
  GI50: > 100 µM (inactive)
SF-539
  GI50: > 100 µM (inactive)
OVCAR-4
  GI50: > 100 µM (inactive)
SR
  GI50: > 100 µM (inactive)
SNB-75
  GI50: 19.4 µM (inactive)
A549
  GI50: > 100 µM (inactive)
786-0
  GI50: > 100 µM (inactive)
DMS-114
  GI50: > 100 µM (inactive)
UACC-257
  GI50: > 100 µM (inactive)
OVCAR-3
  GI50: > 100 µM (inactive)
CAKI-1
  GI50: > 100 µM (inactive)
M14
  GI50: > 100 µM (inactive)
OVCAR-8
  GI50: > 100 µM (inactive)
RXF 393
  GI50: > 100 µM (inactive)
K562
  GI50: > 100 µM (inactive)
SK-MEL-2
  GI50: > 100 µM (inactive)
IGROV-1
  GI50: 72.8 µM (inactive)
SW-620
  GI50: > 100 µM (inactive)
ACHN
  GI50: > 100 µM (inactive)
HT-29
  GI50: > 100 µM (inactive)
HCT-116
  GI50: > 100 µM (inactive)
U-251
  GI50: > 100 µM (inactive)
LOX IMVI
  GI50: > 100 µM (inactive)
SNB-78
  GI50: > 100 µM (inactive)
NCI-H23
  GI50: > 100 µM (inactive)
DMS-273
  GI50: > 100 µM (inactive)
RPMI-8226
  GI50: > 100 µM (inactive)
NCI-H460
  GI50: > 100 µM (inactive)
LXFL 529
  GI50: > 100 µM (inactive)
SNB-19
  GI50: > 100 µM (inactive)
COLO 205
  GI50: > 100 µM (inactive)
TK-10
  GI50: > 100 µM (inactive)
SK-MEL-28
  GI50: > 100 µM (inactive)
DLD-1
  GI50: > 100 µM (inactive)
SF-268
  GI50: > 100 µM (inactive)
